Experimental data: ChEMBL document CHEMBL5331046, “Disulfiram and dithiocarbamate analogues demonstrate promising antischistosomal effects” (Eur J Med Chem, 2022)
Activity calls are given as the source filed them. No cut-off for these calls is given here.

Columns and labels:
Schistosoma mansoni [1] = assay: Antischistosomal activity against Schistosoma mansoni couples assessed as inhibition of eggs production at 100 uM measured upto 72 hrs by bright field microscopy; type: functional; design: scale not given: the % may be the effect or the level left
Schistosoma mansoni [2] = assay: Antischistosomal activity against Schistosoma mansoni couples assessed as decrease in pairing stability at 5 uM measured upto 72 hrs by bright field microscopy; type: functional; design: scale not given: the % may be the effect or the level left
Schistosoma mansoni [3] = assay: Antischistosomal activity against Schistosoma mansoni couples assessed as pairing instability at 100 uM measured upto 72 hrs by bright field microscopy; type: functional
Schistosoma mansoni [4] = assay: Antischistosomal activity against Schistosoma mansoni couples assessed as decrease in parasite motility at 25 uM measured upto 72 hrs by bright field microscopy; type: functional; design: scale not given: the % may be the effect or the level left
HepG2 [5] = assay: Cytotoxicity against human HepG2 cells assessed as reduction in cell vaibility at 100 uM by WST-1 assay; type: toxicity, cell-based; settings: hepg2, 100 µM
LS174T [6] = assay: Cytotoxicity against human LS174T cells assessed as reduction in cell viability at 100 uM by WST-1 assay; type: toxicity, cell-based
Schistosoma mansoni [7] = assay: Antischistosomal activity against Schistosoma mansoni couples at 100 uM measured upto 72 hrs by bright field microscopy; type: functional, organism-based
Schistosoma mansoni [8] = assay: Antischistosomal activity against Schistosoma mansoni couples assessed as decrease in parasite motility at 10 uM measured upto 72 hrs by bright field microscopy; type: functional, organism-based
Schistosoma mansoni [9] = assay: Antischistosomal activity against Schistosoma mansoni couples assessed as decrease in parasite vitality at 10 uM measured upto 72 hrs by bright field microscopy; type: functional
Schistosoma mansoni [10] = assay: Antischistosomal activity against Schistosoma mansoni couples assessed as dead worms at 25 uM measured upto 72 hrs by bright field microscopy; type: functional
Schistosoma mansoni [11] = assay: Antischistosomal activity against Schistosoma mansoni couples assessed as edematous swelling of gut at 25 uM measured upto 72 hrs by bright field microscopy; type: functional, organism-based
Schistosoma mansoni [12] = assay: Antischistosomal activity against Schistosoma mansoni couples assessed as inhibition of eggs production at 10 uM measured upto 72 hrs by bright field microscopy; type: functional, organism-based
Schistosoma mansoni [13] = assay: Antischistosomal activity against Schistosoma mansoni couples assessed as reduction in pairing stability at 10 uM measured upto 72 hrs by bright field microscopy; type: functional, organism-based
HepG2 [14] = assay: Cytotoxicity against human HepG2 cells assessed as reduction in cell vaibility at 25 uM by WST-1 assay; type: toxicity, cell-based; settings: hepg2, 25 µM
LS174T [15] = assay: Cytotoxicity against human LS174T cells assessed as reduction in cell vaibility at 25 uM by WST-1 assay; type: toxicity, cell-based
Schistosoma mansoni [16] = assay: Antischistosomal activity against Schistosoma mansoni couples assessed as lethality to parasites at 50 uM measured upto 72 hrs by bright field microscopy; type: functional, organism-based
Schistosoma mansoni [17] = assay: Antischistosomal activity against Schistosoma mansoni couples assessed as decrease in parasite vitality at <=25 uM measured upto 72 hrs by bright field microscopy; type: functional, organism-based
Schistosoma mansoni [18] = assay: Antischistosomal activity against Schistosoma mansoni couples assessed as inhibition of eggs production at <=25 uM measured upto 72 hrs by bright field microscopy; type: functional, organism-based
Schistosoma mansoni [19] = assay: Antischistosomal activity against Schistosoma mansoni couples assessed as couple separation at 100 uM measured upto 72 hrs by bright field microscopy; type: functional, organism-based
Schistosoma mansoni [20] = assay: Antischistosomal activity against Schistosoma mansoni male worm assessed as tegument damage at 100 uM measured upto 72 hrs by bright field microscopy; type: functional, organism-based
Schistosoma mansoni [21] = assay: Antischistosomal activity against Schistosoma mansoni female worm assessed as tegument damage at 100 uM measured upto 72 hrs by bright field microscopy; type: functional, organism-based
Schistosoma mansoni [22] = assay: Antischistosomal activity against Schistosoma mansoni female worm assessed as gut dilatations at 100 uM measured upto 72 hrs by bright field microscopy; type: functional, organism-based
Schistosoma mansoni [23] = assay: Antischistosomal activity against Schistosoma mansoni female worm assessed as gut dilatations at 10 uM measured upto 72 hrs by bright field microscopy; type: functional, organism-based
Schistosoma mansoni [24] = assay: Antischistosomal activity against Schistosoma mansoni couples assessed as decrease in parasite motility at 15 uM measured upto 72 hrs by bright field microscopy; type: functional; design: scale not given: the % may be the effect or the level left
Schistosoma mansoni [25] = assay: Antischistosomal activity against Schistosoma mansoni couples assessed as decrease in parasite vitality at 15 uM measured upto 72 hrs by bright field microscopy; type: functional; design: scale not given: the % may be the effect or the level left
Schistosoma mansoni [26] = assay: Antischistosomal activity against Schistosoma mansoni couples assessed as decrease in pairing stability at 15 uM measured upto 72 hrs by bright field microscopy; type: functional; design: scale not given: the % may be the effect or the level left
Schistosoma mansoni [27] = assay: Antischistosomal activity against Schistosoma mansoni couples assessed as inhibition of eggs production at 15 uM measured upto 72 hrs by bright field microscopy; type: functional; design: scale not given: the % may be the effect or the level left
Schistosoma mansoni [28] = assay: Antischistosomal activity against Schistosoma mansoni couples assessed as induction of phenotypes at 10 uM measured upto 72 hrs by bright field microscopy; type: functional, organism-based
Schistosoma mansoni [29] = assay: Antischistosomal activity against Schistosoma mansoni couples assessed as tegument damage at 10 uM measured upto 72 hrs by bright field microscopy; type: functional, organism-based
Schistosoma mansoni [30] = assay: Antischistosomal activity against Schistosoma mansoni couples assessed as loss of internal structures at 10 uM measured upto 72 hrs by bright field microscopy; type: functional, organism-based
Schistosoma mansoni [31] = assay: Antischistosomal activity against Schistosoma mansoni couples assessed as tegument damage at <=10 uM measured upto 72 hrs by bright field microscopy; type: functional, organism-based
Schistosoma mansoni [32] = assay: Antischistosomal activity against Schistosoma mansoni couples assessed as gut dilatations at <=10 uM measured upto 72 hrs by bright field microscopy; type: functional, organism-based
Schistosoma mansoni [33] = assay: Antischistosomal activity against Schistosoma mansoni couples assessed as loss of internal structures at <=10 uM measured upto 72 hrs by bright field microscopy; type: functional, organism-based
Schistosoma mansoni [34] = assay: Antischistosomal activity against Schistosoma mansoni couples assessed as reduction in parasite motility at <=10 uM measured upto 72 hrs by bright field microscopy; type: functional; design: scale not given: the % may be the effect or the level left; settings: up to 10 µM
Schistosoma mansoni [35] = assay: Antischistosomal activity against Schistosoma mansoni couples assessed as gut dilatations at 10 uM measured upto 72 hrs by bright field microscopy; type: functional, organism-based
Schistosoma mansoni [36] = assay: Antischistosomal activity against Schistosoma mansoni couples assessed as inhibition of eggs production at 50 uM measured upto 72 hrs by bright field microscopy; type: functional, organism-based
Schistosoma mansoni [37] = assay: Antischistosomal activity against Schistosoma mansoni couples assessed as reduction in pairing stability at 50 uM measured upto 72 hrs by bright field microscopy; type: functional, organism-based
Schistosoma mansoni [38] = assay: Antischistosomal activity against Schistosoma mansoni couples assessed as gut dilations at 50 uM measured upto 72 hrs by bright field microscopy; type: functional, organism-based
Schistosoma mansoni [39] = assay: Antischistosomal activity against Schistosoma mansoni couples assessed as tegument damage at 50 uM measured upto 72 hrs by bright field microscopy; type: functional, organism-based
Schistosoma mansoni [40] = assay: Antischistosomal activity against Schistosoma mansoni couples assessed as intestinal dilations and tegument damage at 50 uM measured upto 72 hrs by bright field microscopy; type: functional, organism-based
HepG2 [41] = assay: Cytotoxicity against human HepG2 cells assessed as reduction in cell viability upto 50 uM by WST-1 assay; type: toxicity, cell-based; settings: hepg2, 50 µM
LS174T [42] = assay: Cytotoxicity against human LS174T cells assessed as reduction in cell vaibility upto 50 uM by WST-1 assay; type: toxicity, cell-based
Schistosoma mansoni [43] = assay: Antischistosomal activity against Schistosoma mansoni couples assessed as couple separation at 10 uM measured upto 72 hrs by bright field microscopy; type: functional
HepG2 [44] = assay: Cytotoxicity against human HepG2 cells assessed as reduction in cell viability upto 100 uM by WST-1 assay; type: toxicity, cell-based; settings: hepg2, 100 µM
LS174T [45] = assay: Cytotoxicity against human LS174T cells assessed as reduction in cell vaibility upto 100 uM by WST-1 assay; type: toxicity, cell-based

## CCN(CC)C(=S)SCCN1CCCCC1
Schistosoma mansoni [1]
  Activity: >80%
Schistosoma mansoni [2]
  Activity: 100%
Schistosoma mansoni [3]
  Activity: 100%

## C[C@H](N)C(=O)N1CCN(C(=S)SCc2ccc([N+](=O)[O-])cc2)CC1.Cl
Schistosoma mansoni [4]
  Activity: 65%
HepG2 [5]
  Activity: Toxic
LS174T [6]
  Activity: Toxic
Schistosoma mansoni [7]
  Activity: Active
Schistosoma mansoni [8]
  Activity: inactive
Schistosoma mansoni [9]
  Activity: Active
Schistosoma mansoni [10]
  Activity: <=25%
Schistosoma mansoni [11]
  Activity: Active
Schistosoma mansoni [12]
  Activity: Active
Schistosoma mansoni [13]
  Activity: Active
HepG2 [14]
  Activity: Toxic
LS174T [15]
  Activity: Toxic

## S=C(SCc1ccccc1)n1ccc2ccccc21
Schistosoma mansoni [4]
  Activity: >=55%
HepG2 [5]
  Activity: Non-Toxic
LS174T [6]
  Activity: Non-Toxic
Schistosoma mansoni [16]
  Activity: Active
Schistosoma mansoni [17]
  Activity: Active
Schistosoma mansoni [18]
  Activity: Active
Schistosoma mansoni [19]
  Activity: Active
Schistosoma mansoni [20]
  Activity: Active
Schistosoma mansoni [21]
  Activity: Active
Schistosoma mansoni [22]
  Activity: Active
Schistosoma mansoni [23]
  Activity: inactive

## O=[N+]([O-])c1ccc(CSC(=S)N2CCN(S(=O)(=O)c3ccccc3)CC2)cc1
HepG2 [5]
  Activity: Toxic
LS174T [6]
  Activity: Toxic
Schistosoma mansoni [8]
  Activity: Active
Schistosoma mansoni [24]
  Activity: 50%
Schistosoma mansoni [25]
  Activity: 90%
Schistosoma mansoni [26]
  Activity: 20%
Schistosoma mansoni [27]
  Activity: 40%
Schistosoma mansoni [28]
  Activity: Active
Schistosoma mansoni [29]
  Activity: Active
Schistosoma mansoni [30]
  Activity: Active
Schistosoma mansoni [31]
  Activity: inactive
Schistosoma mansoni [32]
  Activity: inactive
Schistosoma mansoni [33]
  Activity: inactive
Schistosoma mansoni [34]
  Activity: 50%
Schistosoma mansoni [35]
  Activity: Active

## CCN(CC)C(=S)SCc1ccc(SC)cc1
Schistosoma mansoni [36]
  Activity: Active
Schistosoma mansoni [37]
  Activity: Active
Schistosoma mansoni [38]
  Activity: Active
Schistosoma mansoni [39]
  Activity: Active
Schistosoma mansoni [40]
  Activity: Active
HepG2 [41]
  Activity: Non-Toxic
LS174T [42]
  Activity: Non-Toxic

## CCN(CC)C(=S)SCC1CCCCC1
Schistosoma mansoni [4]
  Activity: 35%
Schistosoma mansoni [9]
  Activity: 90%
Schistosoma mansoni [43]
  Activity: 60%
HepG2 [44]
  Activity: Non-Toxic
LS174T [45]
  Activity: Non-Toxic
